Values after ≈ are worked out from the molar mass of the structure shown. Active and inactive are the calls of the source. No cut-off for these calls is given here.
Experiments:
Escherichia coli [1] = assay: Antimicrobial activity against Escherichia coli MC4100 assessed as uniform electron density of cytoplasm and formation of mesosome-like structure at 5 times MIC after 5 mins by transmission electron microscopy analysis; type: functional, organism-based
Escherichia coli [2] = assay: Antimicrobial activity against Escherichia coli MC4100 assessed as blurred boundaries and highly altered cell walls at 5 times MIC after 5 mins by transmission electron microscopy analysis; type: functional, organism-based
Escherichia coli [3] = assay: Antimicrobial activity against Escherichia coli MC4100 assessed as damage of inner or outer membranes at 5 times MIC after 5 mins by transmission electron microscopy analysis; type: functional, organism-based
Listeria monocytogenes [4] = assay: Antimicrobial activity against Listeria monocytogenes assessed as induction of K+ efflux assessed per mg of cell dry weight at MIC after 30 mins by spectrometry analysis; type: functional
Listeria monocytogenes [5] = assay: Antimicrobial activity against Listeria monocytogenes assessed as induction of K+ efflux assessed per mg of cell dry weight at 2 to 5 times MIC after 30 mins by spectrometry analysis; type: functional
Listeria monocytogenes [6] = assay: Antimicrobial activity against Listeria monocytogenes assessed as induction of Na+ efflux assessed per mg of cell dry weight at 5 times MIC after 30 mins by spectrometry analysis; type: functional
Listeria ivanovii [7] = assay: Antimicrobial activity against Listeria ivanovii HPB20 assessed as appearance of swollen and severely damaged morphology at 5 times MIC after 5 mins by transmission electron microscopy analysis; type: functional
Listeria ivanovii [8] = assay: Antimicrobial activity against Listeria ivanovii HPB20 assessed as loss of integrity at 5 times MIC after 5 mins by transmission electron microscopy analysis; type: functional
Listeria ivanovii [9] = assay: Antimicrobial activity against Listeria ivanovii HPB28 after 24 hrs by polystyrene micro-assay; type: functional; details: HPB28, 24 h
Listeria monocytogenes [10] = assay: Antimicrobial activity against Listeria monocytogenes LSD 532 after 24 hrs by polystyrene micro-assay; type: functional; details: LSD 532, 24 h
Listeria monocytogenes [11] = assay: Antimicrobial activity against Listeria monocytogenes LMA 1045 after 24 hrs by polystyrene micro-assay; type: functional; details: LMA 1045, 24 h
Enterococcus faecalis = assay: Antimicrobial activity against Enterococcus faecalis ATCC 27275 after 24 hrs by polystyrene micro-assay; type: functional; details: ATCC 27275, 24 h
Staphylococcus aureus = assay: Antimicrobial activity against Staphylococcus aureus ATCC 6538 after 24 hrs by polystyrene micro-assay; type: functional; details: ATCC 6538, 24 h
Escherichia coli [12] = assay: Antimicrobial activity against Escherichia coli MC4100 after 24 hrs by polystyrene micro-assay; type: functional; details: MC4100, 24 h
Escherichia coli [13] = assay: Antimicrobial activity against Escherichia coli ATCC 11229 after 24 hrs by polystyrene micro-assay; type: functional; details: ATCC 11229, 24 h
Pseudomonas aeruginosa = assay: Antimicrobial activity against Pseudomonas aeruginosa ATCC 15442 after 24 hrs by polystyrene micro-assay; type: functional; details: ATCC 15442, 24 h
[14] = system: Salmonella enterica subsp. enterica; assay: Antimicrobial activity against Salmonella enterica ATCC 14028 after 24 hrs by polystyrene micro-assay; type: functional; details: ATCC 14028, 24 h
[15] = Hemolytic activity in erythrocytes (unknown origin) after 1 hr; type: ADME, cell-based, Erythrocyte
Listeria monocytogenes [16] = assay: Antimicrobial activity against Listeria monocytogenes assessed as induction of Na+ efflux assessed per mg of cell dry weight at 2 ug/ml after 30 mins by spectrometry analysis; type: functional
Listeria monocytogenes [17] = assay: Antimicrobial activity against Listeria monocytogenes assessed as induction of K+ efflux assessed per mg of cell dry weight at 2 ug/ml after 30 mins by spectrometry analysis; type: functional
Listeria ivanovii [18] = assay: Antimicrobial activity against Listeria ivanovii HPB20 assessed as condensed and localized intracellular content at 5 times MIC after 5 mins by transmission electron microscopy analysis; type: functional, cell-based

MIC (Listeria ivanovii [9]) [µM] | MIC (Listeria monocytogenes [10]) [µM] | MIC (Listeria monocytogenes [11]) [µM] | MIC (Enterococcus faecalis) [µM] | MIC (Staphylococcus aureus) [µM] | MIC (Escherichia coli [12]) [µM] | MIC (Escherichia coli [13]) [µM] | MIC (Pseudomonas aeruginosa) [µM] | MIC [14] [µM] | Structure (SMILES) | Activity (Escherichia coli [2]) | Activity (Escherichia coli [3]) | Activity (Listeria ivanovii [7]) | Activity (Listeria ivanovii [8]) | HC50 at 1 h [15] [µM] | further results
25 | 31 | 62 | 80 | 31 | 50 | 50 | > 5000 | 1250 | CCC(=C(c1ccc(OCCCN(C)C)cc1)c1ccc(OCCCN(C)C)cc1)c1ccccc1.O=C(O)CC(O)(CC(=O)O)C(=O)O | Active | Active | Active | Active | 67.1 | Activity (Escherichia coli [1]): Active; Activity (Listeria monocytogenes [4]): 183.74 nmol; Activity (Listeria monocytogenes [5]): 344 nmol; Activity (Listeria monocytogenes [6]): 68%
 |  |  |  |  |  |  |  |  | C=C(NC(=O)[C@@H](NC(=O)[C@H](Cc1cnc[nH]1)NC(=O)[C@@H](NC(=O)[C@H](CO)NC(=O)[C@@H]1CSC(C)[C@@H]2NC(=O)[C@H](C)NC(=O)[C@@H](NC(=O)N(CCCCN)C(=O)[C@H](CCCCN)NC(=O)[C@@H](CCSC)NC(=O)[C@H](CC(N)=O)NC(=O)[C@@H]3CSC(C)[C@H](NC(=O)[C@H](CCCCN)NC(=O)[C@@H]4CSC(C)[C@H](NC(=O)[C@@H]5CSC[C@H](NC(=O)/C(=C/C)NC(=O)[C@@H](N)[C@@H](C)CC)C(=O)N[C@@H](CC(C)C)C(=O)NC(=C)C(=O)N[C@@H](CC(C)C)C(=O)N5)C(=O)N5CCC[C@H]5C(=O)NCC(=O)N4)C(=O)NCC(=O)N[C@@H](C)C(=O)N[C@@H](CC(C)C)C(=O)N[C@H](CCSC)C(=O)NCC(=O)N3)C(C)SC[C@H](NC2=O)C(=O)N[C@@H](Cc2cnc[nH]2)C(=O)N1)[C@@H](C)CC)C(C)C)C(=O)N[C@@H](CCCCN)C(=O)O (stereo not given in full) |  |  |  |  |  | Activity (Listeria monocytogenes [16]): 635.96 nmol; Activity (Listeria monocytogenes [17]): 361.79 nmol
25 (≈ 12.1 µg/mL) | 31 (≈ 15 µg/mL) | 62 (≈ 30.1 µg/mL) | 40 (≈ 19.4 µg/mL) | 31 (≈ 15 µg/mL) | 100 (≈ 48.5 µg/mL) | 100 (≈ 48.5 µg/mL) | 2500 (≈ 1210 µg/mL) | 2500 (≈ 1210 µg/mL) | CN(C)CCCOc1ccc(C(=C2CCc3ccccc32)c2ccc(OCCCN(C)C)cc2)cc1 | Active | Active | Active | Active | 68.6 | Activity (Listeria ivanovii [18]): Active
